# Assay results as given in patent publication US11214594B2, “Antimicrobial peptide having synergistic antibacterial effect with antibiotics on multidrug resistant bacteria, and use thereof” (priority 2016, dated 2022).
# Read-outs that look alike come from different tables or passages of the source. Where a SMILES comes first, the peptide text is derived from it. [ ]: non-standard residue; d: D form.
# What was measured:
# MDREC 1229 = format: cell-based, Escherichia coli
# How it was run: (§1)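 Strains in MH medium at 2×10^6 CFU/ml were mixed with peptide diluted stepwise (2:1) from its MIC, then antibiotic dilutions in MH medium were added to give the antibiotic MIC. The reversed set-up, peptide titrated against fixed antibiotic, gave the peptide MIC.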
# E. coli [1] = format: cell-based, Escherichia coli; details: E. coli
# How it was run: as §1
# E. coli [2] = test: MIC of antibiotic during combined treatment with antimicrobial peptide; format: cell-based, Escherichia coli; details: for Antibiotic MIC, Erythromycin / Antibiotic MIC, Linezolid / Antibiotic MIC, Vancomycin: E. coli
# How it was run: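 Checkerboard-type MIC of peptide–antibiotic mixtures in MH medium: the antibiotic was serially diluted in MH medium and added to wells, then the reversed arrangement was also tested.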
# MDRAB 12035 = test: MIC of antimicrobial peptide during combined treatment with antibiotic; format: cell-based, Acinetobacter baumannii
# How it was run: as §1
# A. baumannii = test: as above; format: cell-based, Acinetobacter baumannii
# How it was run: as §1
# [3] = linezolid 512 μg/ml (Conc./MIC 1)
# [4] = vancomycin 512 μg/ml (Conc./MIC 1/2)
# [5] = vancomycin 1024 μg/ml (Conc./MIC 1)
# [6] = erythromycin 4 μg/ml (Conc./MIC 1/8)
# [7] = erythromycin 8 μg/ml (Conc./MIC 1/4)
# [8] = erythromycin 16 μg/ml (Conc./MIC 1/2)
# [9] = erythromycin 32 μg/ml (Conc./MIC 1)
smiles,measurement,setting,value
"CC[C@H](C)[C@H](NC(=O)[C@H](CCCCN)NC(=O)[C@H](Cc1c[nH]c2ccccc12)NC(=O)[C@@H](N)CCCNC(=N)N)C(=O)N[C@@H](Cc1ccccc1)C(=O)N[C@@H](CCCCN)C(=O)N[C@@H](CCCCN)C(=O)N[C@H](C(=O)N[C@H](CC(C)C)C(=O)N[C@@H](CCCCN)C(=O)N[C@@H](CC(C)C)C(=O)N[C@@H](CC(C)C)C(=O)N[C@@H](Cc1c[nH]cn1)C(=O)N[C@@H](CCC(=O)O)C(=O)N[C@@H](C)C(=O)N[C@@H](CCCCN)C(=O)N[C@@H](CCCCN)C(=O)N[C@@H](Cc1c[nH]c2ccccc12)C(N)=O)[C@@H](C)CC [PapMA-24, RWK IFK KIl KLL HEA KKW-NH2] (H-RWKIFKKI[dL]KLLHEAKKW-NH2; N-terminus assumed)",Peptide MIC during treatment with antibiotic,MDREC 1229; [3],0 µg/mL
same,Peptide MIC during treatment with antibiotic,MDREC 1229; linezolid […] (Conc./MIC 1/2),1 µg/mL
same,Peptide MIC during treatment with antibiotic,MDREC 1229; linezolid […] (Conc./MIC 1/4),2 µg/mL
same,Peptide MIC during treatment with antibiotic,MDREC 1229; [4],2 µg/mL
same,Peptide MIC during treatment with antibiotic,MDREC 1229; [5],1 µg/mL
same,Peptide MIC during treatment with antibiotic,MDREC 1229; vancomycin […] (Conc./MIC 1/4),4 µg/mL
same,Peptide MIC during treatment with antibiotic,MDREC 1229; vancomycin […] (Conc./MIC 1/8),8 µg/mL
same,Peptide MIC,E. coli [1]; with Erythromycin […] (Conc./MIC 1),0 µg/mL
same,Peptide MIC,E. coli [1]; with Linezolid […] (Conc./MIC 1),0 µg/mL
same,Peptide MIC,E. coli [1]; with Vancomycin 1024 μg/ml (Conc./MIC 1),0 µg/mL
same,Synergistic effect of antibacterial activity with existing antibiotics compared with PapMA-1,E. coli [2]; E. coli and MDREC1229,level similar to that of the PapMA-1 peptide
same,"Antibiotic MIC, Erythromycin",E. coli [2]; erythromycin combined with peptide at 1 μg/ml,64 µg/mL
same,"Antibiotic MIC, Erythromycin",E. coli [2]; erythromycin combined with peptide at 2 μg/ml,32 µg/mL
same,"Antibiotic MIC, Erythromycin",E. coli [2]; erythromycin combined with peptide at 4 μg/ml,16 µg/mL
same,"Antibiotic MIC, Erythromycin",E. coli [2]; erythromycin combined with peptide at 6 μg/ml,4 µg/mL
same,"Antibiotic MIC, Erythromycin",E. coli [2]; erythromycin combined with peptide at 8 μg/ml,2 µg/mL
same,"Antibiotic MIC, Erythromycin",E. coli [2]; erythromycin combined with peptide at 16 μg/ml,0.5 µg/mL
same,"Antibiotic MIC, Erythromycin",E. coli [2]; erythromycin combined with peptide at 32 μg/ml,0 µg/mL
same,"Antibiotic MIC, Erythromycin",E. coli [2]; erythromycin combined with peptide at 64 μg/ml,0 µg/mL
same,"Antibiotic MIC, Linezolid",E. coli [2]; linezolid combined with peptide at 1 μg/ml,>128 µg/mL
same,"Antibiotic MIC, Linezolid",E. coli [2]; linezolid combined with peptide at 2 μg/ml,128 µg/mL
same,"Antibiotic MIC, Linezolid",E. coli [2]; linezolid combined with peptide at 4 μg/ml,64 µg/mL
same,"Antibiotic MIC, Linezolid",E. coli [2]; linezolid combined with peptide at 6 μg/ml,32 µg/mL
same,"Antibiotic MIC, Linezolid",E. coli [2]; linezolid combined with peptide at 8 μg/ml,32 µg/mL
same,"Antibiotic MIC, Linezolid",E. coli [2]; linezolid combined with peptide at 16 μg/ml,8 µg/mL
same,"Antibiotic MIC, Linezolid",E. coli [2]; linezolid combined with peptide at 32 μg/ml,0 µg/mL
same,"Antibiotic MIC, Linezolid",E. coli [2]; linezolid combined with peptide at 64 μg/ml,0 µg/mL
same,"Antibiotic MIC, Vancomycin",E. coli [2]; vancomycin combined with peptide at 1 μg/ml,>128 µg/mL
same,"Antibiotic MIC, Vancomycin",E. coli [2]; vancomycin combined with peptide at 2 μg/ml,>128 µg/mL
same,"Antibiotic MIC, Vancomycin",E. coli [2]; vancomycin combined with peptide at 4 μg/ml,128 µg/mL
same,"Antibiotic MIC, Vancomycin",E. coli [2]; vancomycin combined with peptide at 6 μg/ml,32 µg/mL
same,"Antibiotic MIC, Vancomycin",E. coli [2]; vancomycin combined with peptide at 8 μg/ml,16 µg/mL
same,"Antibiotic MIC, Vancomycin",E. coli [2]; vancomycin combined with peptide at 16 μg/ml,8 µg/mL
same,"Antibiotic MIC, Vancomycin",E. coli [2]; vancomycin combined with peptide at 32 μg/ml,0 µg/mL
same,"Antibiotic MIC, Vancomycin",E. coli [2]; vancomycin combined with peptide at 64 μg/ml,0 µg/mL
same,Peptide MIC during treatment with erythromycin,MDRAB 12035; [6],8 µg/mL
same,Peptide MIC during treatment with erythromycin,MDRAB 12035; [7],8 µg/mL
same,Peptide MIC during treatment with erythromycin,MDRAB 12035; [8],4 µg/mL
same,Peptide MIC during treatment with erythromycin,MDRAB 12035; [9],0 µg/mL
same,Peptide MIC during treatment with linezolid,MDRAB 12035; linezolid 64 μg/ml (Conc./MIC 1/8),4 µg/mL
same,Peptide MIC during treatment with linezolid,MDRAB 12035; [3],0 µg/mL
same,Peptide MIC during treatment with linezolid,MDRAB 12035; linezolid […] (Conc./MIC 1/2),1 µg/mL
same,Peptide MIC during treatment with linezolid,MDRAB 12035; linezolid […] (Conc./MIC 1/4),4 µg/mL
same,Peptide MIC during treatment with vancomycin,MDRAB 12035; [4],2 µg/mL
same,Peptide MIC during treatment with vancomycin,MDRAB 12035; [5],1 µg/mL
same,Peptide MIC during treatment with vancomycin,MDRAB 12035; vancomycin […] (Conc./MIC 1/4),4 µg/mL
same,Peptide MIC during treatment with vancomycin,MDRAB 12035; vancomycin […] (Conc./MIC 1/8),4 µg/mL
same,Peptide MIC during treatment with erythromycin,A. baumannii; [6],8 µg/mL
same,Peptide MIC during treatment with erythromycin,A. baumannii; [7],4 µg/mL
same,Peptide MIC during treatment with erythromycin,A. baumannii; [8],4 µg/mL
same,Peptide MIC during treatment with erythromycin,A. baumannii; [9],0 µg/mL
same,Peptide MIC during treatment with linezolid,A. baumannii; linezolid 32 μg/ml (Conc./MIC 1/8),8 µg/mL
same,Peptide MIC during treatment with linezolid,A. baumannii; linezolid 64 μg/ml (Conc./MIC 1/4),4 µg/mL
same,Peptide MIC during treatment with linezolid,A. baumannii; linezolid […] (Conc./MIC 1),0 µg/mL
same,Peptide MIC during treatment with linezolid,A. baumannii; linezolid […] (Conc./MIC 1/2),1 µg/mL
same,Peptide MIC during treatment with vancomycin,A. baumannii; [4],0.25 µg/mL
same,Peptide MIC during treatment with vancomycin,A. baumannii; [5],0 µg/mL
same,Peptide MIC during treatment with vancomycin,A. baumannii; vancomycin […] (Conc./MIC 1/4),0.5 µg/mL
same,Peptide MIC during treatment with vancomycin,A. baumannii; vancomycin […] (Conc./MIC 1/8),2 µg/mL
